According to patent US9686984B2, “Macrocyclic picolinamides as fungicides” (DOW AGROSCIENCES LLC, priority 2014, dated 2017):
Where two headings read alike, the source gives them in different places.

Tests used:
Type in all cases: in vivo
Zymoseptoria tritici = assay: Leaf Blotch of Wheat (SEPTTR) disease control on wheat seedlings; conditions: for pest or weed control at 121.5 g/ha: Low Volume (121.5 g/H); for pest or weed control at 100 µg/mL: High Volume (100 ppm)
Procedure, shortened: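 Compounds in acetone/water (1:9, 110 ppm Triton X-100) sprayed to run-off on Yuma wheat seedlings at first-leaf stage, with Septoria tritici spores inoculated before or after treatment. Plants held at 100% RH (dark then lighted dew chamber, 20° C), then in greenhouse at 20° C; % control from disease severity on 1st leaves versus untreated.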

Erysiphe cichoracearum = assay: Powdery Mildew of Cucumber (ERYSCI) disease control; conditions: 100 ppm, 1 Day Protectant
Description: Technical grades of materials were dissolved in acetone, which were then mixed with nine volumes of water containing 110 ppm Triton X-100. The fungicide solutions were applied onto wheat seedlings using an automated booth sprayer to run-off. All sprayed plants were allowed to air dry prior to further handling. All fungicides were evaluated using the aforementioned method for their activity vs. all target diseases, unless stated otherwise. Wheat leaf blotch and brown rust activity were also evaluated using track spray applications, in which case the fungicides were formulated as EC formulations, containing 0.1% Trycol 5941 in the spray solutions. Wheat plants (variety Yuma) were grown from seed in a greenhouse in 50% mineral soil/50% soil-less Metro mix until the first leaf was fully emerged, with 7-10 seedlings per pot. These plants were inoculated with an aqueous spore suspension of Septoria tritici either prior to or after fungicide treatments. After inoculation the plants were kept in 100% relative humidity (one day in a dark dew chamber followed by two to three days in a lighted dew chamber at 20° C.) to permit spores to germinate and infect the leaf. The plants were then transferred to a greenhouse set at 20° C. for disease to develop. When disease symptoms were fully expressed on the 1st leaves of untreated plants, infection levels were assessed on a scale of 0 to 100 percent disease severity. Percent disease control was calculated using the ratio of disease severity on treated plants relative to untreated plants. Example F: Evaluation of Fungicidal Activity: Powdery Mildew of Cucumber (Erysiphe cichoracearum; Bayer Code […]) Cucumber seedlings (variety Bush Pickle) were grown in soil-less Metro mix, with one plant per pot, and used in the test when 12 to 14 days old. Plants were inoculated with a spore suspension 24 hr following fungicide treatments. After inoculation the plants remained in the greenhouse set at 20° C. until disease was fully expressed. […]

Rhyncosporium secalis = assay: Barley Scald (RHYNSE) disease control; conditions: 100 ppm, 1 Day Protectant
Description: Technical grades of materials were dissolved in acetone, which were then mixed with nine volumes of water containing 110 ppm Triton X-100. The fungicide solutions were applied onto wheat seedlings using an automated booth sprayer to run-off. All sprayed plants were allowed to air dry prior to further handling. All fungicides were evaluated using the aforementioned method for their activity vs. all target diseases, unless stated otherwise. Wheat leaf blotch and brown rust activity were also evaluated using track spray applications, in which case the fungicides were formulated as EC formulations, containing 0.1% Trycol 5941 in the spray solutions. Wheat plants (variety Yuma) were grown from seed in a greenhouse in 50% mineral soil/50% soil-less Metro mix until the first leaf was fully emerged, with 7-10 seedlings per pot. These plants were inoculated with an aqueous spore suspension of Septoria tritici either prior to or after fungicide treatments. After inoculation the plants were kept in 100% relative humidity (one day in a dark dew chamber followed by two to three days in a lighted dew chamber at 20° C.) to permit spores to germinate and infect the leaf. The plants were then transferred to a greenhouse set at 20° C. for disease to develop. When disease symptoms were fully expressed on the 1st leaves of untreated plants, infection levels were assessed on a scale of 0 to 100 percent disease severity. Percent disease control was calculated using the ratio of disease severity on treated plants relative to untreated plants. Example K: Evaluation of Fungicidal Activity: Barley Scald (Rhyncosporium secalis; Bayer Code […]) Barley seedlings (variety Harrington) were propagated in soil-less Metro mix, with each pot having 8 to 12 plants, and used in the test when first leaf was fully emerged. Test plants were inoculated by an aqueous spore suspension of Rhyncosporium secalis 24 hr after fungicide treatments. After inoculation the plants were kept in a dew room at 20° C. with 100% relative humidity for 48 hr. […]

Magnaporthe grisea = conditions: 100 ppm, 1 Day Protectant
Venturia inaequalis = assay: Apple Scab (VENTIN) disease control; conditions: 100 ppm, 1 Day Protectant
Uncinula necator = assay: Grape Powdery Mildew (UNCINE) disease control; conditions: 100 ppm, 1 Day Protectant
Phakopsora pachyrhizi = assay: Asian Soybean Rust (PHAKPA) disease control; conditions: 25 ppm
Description: Example H: Evaluation of Fungicidal Activity: Asian Soybean Rust (Phakopsora pachyrhizi; Bayer Code […]) Technical grades of materials were dissolved in acetone, which were then mixed with nine volumes of water containing 0.011% Tween 20. The fungicide solutions were applied onto soybean seedlings using an automated booth sprayer to run-off. All sprayed plants were allowed to air dry prior to further handling. Soybean plants (variety Williams 82) were grown in soil-less Metro mix, with one plant per pot. Two weeks old seedlings were used for testing. Plants were inoculated either 3 days prior to or 1 day after fungicide treatments. Plants were incubated for 24 h in a dark dew room at 22° C. and 100% relative humidity then transferred to a growth room at 23° C. for disease to develop. Disease severity was assessed on the sprayed leaves.

[1] = 24 h, 1 Day Protectant, read-out: SEPTTR disease control, 1 DP
[2] = 72 h, 3 Day Curative, read-out: SEPTTR disease control, 3 DC

Compound	pest or weed control at 121.5 g/ha (Zymoseptoria tritici; [1])	pest or weed control at 121.5 g/ha (Zymoseptoria tritici; [2])	ERYSCI disease control, 1DP (Erysiphe cichoracearum)	RHYNSE disease control, 1DP (Rhyncosporium secalis)	PYRIOR disease control, 1DP (Magnaporthe grisea)	pest or weed control at 100 µg/mL (Zymoseptoria tritici; [1])	pest or weed control at 100 µg/mL (Zymoseptoria tritici; [2])	VENTIN disease control, 1DP (Venturia inaequalis)	UNCINE disease control, 1DP (Uncinula necator)	PHAKPA disease control, 1DP (Phakopsora pachyrhizi; 1 Day Protectant)	PHAKPA disease control, 3DC (Phakopsora pachyrhizi; 3 Day Curative)
CCCC[C@H]1OCC[C@H](NC(=O)c2nccc(OC)c2OC(C)=O)C(=O)O[C@@H](C)[C@@H]1Cc1ccccc1 [Compound 2]	> 70%	> 70%	B (≦70)	A (>70)	A (>70)	–	–	–	–	–	–
COc1ccnc(C(=O)N[C@H]2CCO[C@H](Cc3ccccc3)[C@@H](Cc3ccccc3)[C@H](C)OC2=O)c1OC(C)=O [Compound 3]	> 70%	> 70%	B (≦70)	B (≦70)	A (>70)	–	–	–	–	–	–
CCC[C@H]1OCC[C@H](NC(=O)c2nccc(OC)c2OCOC(C)=O)C(=O)O[C@@H](C)[C@@H]1Cc1ccccc1 [Compound 17]	> 70%	> 70%	B (≦70)	B (≦70)	A (>70)	> 70%	> 70%	B (≦70)	A (>70)	A (>70)	A (>70)
